The numbers were not newly measured in patent publication US7417165B2, “Crystalline forms of pregabalin” (Teva Pharmaceutical Industries Ltd., priority 2005, dated 2008), which cites them from elsewhere.

The test system of data set [1] is GAD (L-glutamic acid decarboxylase). The conditions noted are these: background statement, no data.
The next data set has as its system seizure. The conditions noted are these: background statement, no data.

Consider `CC(C)C[C@H](CN)CC(=O)O` [(S)-Pregabalin, (S)-(+)-3-(aminomethyl)-5-methylhexanoic acid], for which the “activation of GAD (L-glutamic acid decarboxylase)” value in data set [1] is “activate”. The “protective effect on seizure” value in the data set with seizure is reported as “dose dependent protective effect”.
